Measurements as given in patent US20220002279A1, “NOVEL IMIDAZOLE DERIVATIVE” (priority 2018, published 2022).
Values after ≈ are worked out from the molar mass of the structure shown. Where two headings read alike, the source gives them in different places.

What was measured:
[1] = target: T1, Escherichia coli LpxC enzyme (Escherichia coli, UniProt P0A725); assay: Inhibitory activity on Escherichia coli LpxC enzyme (fluorescamine method); format: biochemical
T1 construct: made in house; host or cells: Escherichia coli
T1 sequence (P0A725 1-305): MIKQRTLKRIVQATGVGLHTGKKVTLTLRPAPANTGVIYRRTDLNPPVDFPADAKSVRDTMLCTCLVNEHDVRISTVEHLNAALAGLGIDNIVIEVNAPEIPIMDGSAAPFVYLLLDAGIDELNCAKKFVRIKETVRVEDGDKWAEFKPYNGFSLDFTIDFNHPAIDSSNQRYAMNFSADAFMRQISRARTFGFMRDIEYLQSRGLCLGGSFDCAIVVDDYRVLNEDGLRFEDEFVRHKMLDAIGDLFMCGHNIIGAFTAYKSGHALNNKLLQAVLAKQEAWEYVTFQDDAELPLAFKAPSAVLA
Protocol: To assay the activity of Escherichia coli LpxC enzyme, LpxC was reacted with its substrate, UDP-3-O-(R-3-hydroxymyristoyl)-N-acetylglucosamine, and the amount of the reaction product was quantified by the amino groups present in the product
The reaction was terminated by the addition of 1.0 mg/mL-fluorescamine dissolved in a solvent obtained by mixing an equal amount of acetonitrile and dimethylformamide with the reaction mixture, and then, a 0.2 mol/L-sodium phosphate buffer solution (pH 8.0) was added thereto, and the amount of the reaction product was detected at an excitation wavelength/fluorescence wavelength=390 nm/495 nm. An inhibition curve was obtained by performing the aforementioned reaction in the presence of various concentrations of test compounds.

[2] = test system: Escherichia coli strain ATCC25922; assay: Antimicrobial activity, MIC by broth microdilution; format: cell-based; conditions: ATCC25922, 18 h, cation-adjusted Mueller-Hinton broth, about 5×10^5 CFU/mL, 35° C., about 18 hours, read-out: MIC Escherichia coli ATCC25922
How it was run: (§1)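 CLSI-based broth microdilution in cation-adjusted Mueller-Hinton broth, inoculum about 5×10^5 CFU/mL from overnight heart infusion agar culture. Incubation 35° C. about 18 h; MIC is the lowest concentration with no visible growth.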

[3] = test system: Klebsiella pneumoniae strain ATCC13883; assay: Antimicrobial activity, MIC by broth microdilution; format: cell-based; conditions: ATCC13883, cation-adjusted Mueller-Hinton broth, about 5×10^5 CFU/mL, 35° C., about 18 hours, read-out: MIC Klebsiella pneumoniae ATCC13883
How it was run: as §1

[4] = test system: Pseudomonas aeruginosa strain ATCC27853; assay: Antimicrobial activity, MIC by broth microdilution; format: cell-based; conditions: ATCC27853, 18 h, cation-adjusted Mueller-Hinton broth, about 5×10^5 CFU/mL, 35° C., about 18 hours, read-out: MIC Pseudomonas aeruginosa ATCC27853
How it was run: as §1

[5] = fluorescamine detection, 3.1 nmol/L enzyme, 20 μmol/L substrate, pH 6.5, 120 min, read-out: IC50 (inhibitory activity on Escherichia coli LpxC enzyme, Fluoresamine method)

| Compound | IC50 [1, 5] | MIC [2] | MIC [3] | MIC [4] | IC50 [1] |
| --- | --- | --- | --- | --- | --- |
| C[C@H](O)c1nccn1Cc1cc(-c2ccc(C#CC3(C)COC3)cc2)on1 [Compound 47, (1S)-1-{1-[(5-{4-[(3-methyloxetan-3-yl)ethynyl]phenyl}-1,2-oxazol-3-yl)methyl]-1H-imidazol-2-yl} ethan-1-ol] | 19.3 nM | 0.5 µg/mL (≈ 1.38 µM) | 1 µg/mL (≈ 2.75 µM) | > 128 µg/mL |  |
| C[C@H](O)c1nccn1Cc1cc(-c2ccc(C#CCO)cc2)on1 [Compound 48, 3-{4-[3-((2-[(1S)-1-hydroxyethyl]-1H-imidazol-1-yl}methyl)-1,2-oxazol-5-yl]phenyl}prop-2-yn-1-ol] | 362 nM | 16 µg/mL (≈ 49.5 µM) | 32 µg/mL (≈ 99 µM) | > 32 µg/mL |  |
| C[C@H](O)c1nccn1Cc1cc(-c2ccc(C#CC3CCOC3)cc2)on1 (stereo partly drawn) [Compound 49, (1S)-1-{1-[(5-{4-[(oxolan-3-yl)ethynyl]phenyl}-1,2-oxazol-3-yl)methyl]-1H-imidazol-2-yl}ethan-1-ol] | 29.6 nM | 0.5 µg/mL (≈ 1.38 µM) | 1 µg/mL (≈ 2.75 µM) | > 32 µg/mL |  |
| C[C@H](O)c1nccn1Cc1cc(-c2ccc(C#CC3(N(C)C)CC3)cc2)on1 [Compound 50, (1S)-1-(1-{[5-(4-{[1-(dimethylamino)cyclopropyl]ethynyl}phenyl)-1,2-oxazol-3-yl]methyl}-1H-imidazol-2-yl)ethan-1-ol] | 205 nM | 2 µg/mL (≈ 5.31 µM) | 4 µg/mL (≈ 10.6 µM) | > 128 µg/mL |  |
| C[C@H](O)c1nccn1Cc1cc(-c2ccc(C#CCNC3CC3)cc2)on1 [Compound 51, (1S)-1-{1-[(5-(4-[3-(cyclopropylamino)prop-1-yn-1-yl]phenyl}-1,2-oxazol-3-yl)methyl]-1H-imidazol-2-yl}ethan-1-ol] | 182 nM | 1 µg/mL (≈ 2.76 µM) | 2 µg/mL (≈ 5.52 µM) | > 32 µg/mL |  |
| C[C@H](O)c1nccn1Cc1cc(-c2ccc(C#CC3(O)CC3)cc2)on1 [Compound 52, 1-({4-[3-({2-[(1S)-1-hydroxyethyl]-1H-imidazol-1-yl}methyl)-1,2-oxazol-5-yl]phenyl}ethynyl)cyclopropan-1-ol] | 83.5 nM | 2 µg/mL (≈ 5.72 µM) | 4 µg/mL (≈ 11.4 µM) | 128 µg/mL (≈ 366 µM) |  |
| COCC#Cc1ccc(-c2cc(Cn3ccnc3[C@H](C)O)no2)cc1 [Compound 53, (1S)-1-[l-((5-[4-(3-methoxyprop-1-yn-1-yl)phenyl]-1,2-oxazol-3-yl}methyl)-1H-imidazol-2-yl]ethan-1-ol] | 81.7 nM | 4 µg/mL (≈ 11.9 µM) | 2 µg/mL (≈ 5.93 µM) | > 128 µg/mL |  |
| CC(O)CN1C[C@@H]2[C@@H](C#Cc3ccc(-c4cc(Cn5ccnc5[C@H](C)O)no4)cc3)[C@@H]2C1 (stereo partly drawn) [Compound 55, 1-[(1R,5S,6s)-6-({4-[3-({2-[(1S)-1-hydroxyethyl]-1H-imidazol-1-yl}methyl)-1,2-oxazol-5-yl]phenyl}ethynyl)-3-azabicyclo[3.1.0]hexan-3-yl]propan-2-ol] | 97.7 nM | 0.5 µg/mL (≈ 1.16 µM) | 1 µg/mL (≈ 2.31 µM) | 16 µg/mL (≈ 37 µM) |  |
| C[C@H](O)c1nccn1Cc1cc(-c2ccc(C#C[C@@H]3[C@H]4CN(C(CO)CO)C[C@@H]34)cc2)on1 [Compound 56, 2-[(1R,5S,6s)-6-({4-[3-((2-[(1S)-1-hydroxyethyl]-1H-imidazol-1-yl}methyl)-1,2-oxazol-5-yl]phenyl}ethynyl)-3-azabicyclo[3.1.0]hexan-3-yl]propan-1,3-diol] | 83.7 nM | 1 µg/mL (≈ 2.23 µM) | 2 µg/mL (≈ 4.46 µM) | 8 µg/mL (≈ 17.8 µM) |  |
| COCC(O)CN1C[C@@H]2[C@@H](C#Cc3ccc(-c4cc(Cn5ccnc5[C@H](C)O)no4)cc3)[C@@H]2C1 (stereo partly drawn) [Compound 57, 1-[(1R,5S,6s)-6-({4-[3-((2-[(1S)-1-hydroxyethyl]-1H-imidazol-1-yl}methyl)-1,2-oxazol-5-yl]phenyl}ethynyl)-3-azabicyclo[3.1.0]hexan-3-yl]-3-methoxypropan-2-ol] | 71 nM | 0.5 µg/mL (≈ 1.08 µM) | 0.5 µg/mL (≈ 1.08 µM) | 8 µg/mL (≈ 17.3 µM) |  |
| C[C@H](O)c1nccn1Cc1cc(-c2ccc(C#C[C@@H]3[C@H]4CN(C5COC5)C[C@@H]34)cc2)on1 [Compound 59, (1S)-1-(1-{[5-(4-{[(1R,5S,6s)-3-(Oxetan-3-yl)-3-azabicyclo[3.1.0]hexan-6-yl]ethynyl}phenyl)-1,2-oxazol-3-yl]methyl}-1H-imidazol-2-yl)ethan-1-ol] |  | 0.5 µg/mL (≈ 1.16 µM) | 0.5 µg/mL (≈ 1.16 µM) | > 16 µg/mL | 35.5 nM |
| CNCCC(=O)N1C[C@@H]2[C@@H](C#Cc3ccc(-c4cc(Cn5ccnc5[C@H](C)O)no4)cc3)[C@@H]2C1 [Compound 63, 1-[(1R,5S,6s)-6-({4-[3-({2-[(1S)-1-hydroxyethyl]-1H-imidazol-1-yl}methyl)-1,2-oxazol-5-yl]phenyl}ethynyl)-3-azabicyclo[3.1.0]hexan-3-yl]-3-(methylamino)propan-1-one] | 105 nM | 8 µg/mL (≈ 17.4 µM) | 16 µg/mL (≈ 34.8 µM) | 8 µg/mL (≈ 17.4 µM) |  |
| COCCC#Cc1ccc(-c2cc(Cn3ccnc3[C@H](C)O)no2)cc1 [Compound 65, (1S)-1-[l-({5-[4-(4-methoxybut-1-yn-1-yl)phenyl]-1,2-oxazol-3-yl)methyl)-1H-imidazol-2-yl]ethan-1-ol] | 39.1 nM | 0.5 µg/mL (≈ 1.42 µM) | 1 µg/mL (≈ 2.85 µM) | > 128 µg/mL |  |
| C[C@H](O)c1nccn1Cc1cc(-c2ccc(C#CC3CN(C(=O)OC(C)(C)C)C3)cc2)on1 [Compound 68, tert-butyl 3-({4-[3-({2-[(1S)-1-hydroxyethyl]-1H-imidazol-1-yl}methyl)-1,2-oxazol-5-yl]phenyl}ethynyl)azetidine-1-carboxylate] | 13.6 nM | 2 µg/mL (≈ 4.46 µM) | 4 µg/mL (≈ 8.92 µM) | 32 µg/mL (≈ 71.3 µM) |  |
| CC(=O)N1CC(C#Cc2ccc(-c3cc(Cn4ccnc4[C@H](C)O)no3)cc2)C1 [Compound 69, 1-[3-({4-[3-({2-[(1S)-1-hydroxyethyl]-1H-imidazol-1-yl}methyl)-1,2-oxazol-5-yl]phenyl}ethynyl)azetidin-1-yl]ethan-1-one] | 54.2 nM | 4 µg/mL (≈ 10.2 µM) | 8 µg/mL (≈ 20.5 µM) | 64 µg/mL (≈ 164 µM) |  |
| C[C@H](O)c1nccn1Cc1cc(-c2ccc(C#C[C@@H]3[C@H]4CN(C(N)=O)C[C@@H]34)cc2)on1 [Compound 71, (1R,5S,6s)-6-({4-[3-({2-[(1S)-1-Hydroxyethyl]-1H-imidazol-1-yl}methyl)-1,2-oxazol-5-yl]phenyl}ethynyl)-3-azabicyclo[3.1.0]hexane-3-carboxamide] | 29 nM | 1 µg/mL (≈ 2.4 µM) | 2 µg/mL (≈ 4.79 µM) | > 16 µg/mL |  |
| C[C@H](O)c1nccn1Cc1cc(-c2ccc(C#C[C@@H]3[C@H]4CN(S(C)(=O)=O)C[C@@H]34)cc2)on1 [Compound 72, (1S)-1-(1-{[5-(4-{[(1R,5S,6s)-3-(Methanesulfonyl)-3-azabicyclo[3.1.0]hexan-6-yl]ethynyl}phenyl)-1,2-oxazol-3-yl]methyl}-1H-imidazol-2-yl)ethan-1-ol] | 112 nM | 0.5 µg/mL (≈ 1.1 µM) | 1 µg/mL (≈ 2.21 µM) | > 16 µg/mL |  |
| C[C@H](O)c1nccn1Cc1cc(-c2ccc(C#C[C@@H]3[C@H]4CN(C=O)C[C@@H]34)cc2)on1 [Compound 73, (1R,5S,6s)-6-({4-[3-({2-[(1S)-1-Hydroxyethyl]-1H-imidazol-1-yl}methyl)-1,2-oxazol-5-yl]phenyl}ethynyl)-3-azabicyclo[3.1.0]hexane-3-carbaldehyde] | 38.5 nM | 1 µg/mL (≈ 2.48 µM) | 2 µg/mL (≈ 4.97 µM) | 64 µg/mL (≈ 159 µM) |  |
